# Patent US4731109A, “Herbicidal 2-haloacetanilides” (Monsanto Company, priority 1982, dated 1988)
# Read-outs that look alike come from different tables or passages of the source.
# Key:
# Assay type in all cases: in vivo
# [1] = test system: Quackgrass; assay: Greenhouse pre-emergence GR15/GR85 selectivity test
# Text: (§1) A good grade of top soil is placed in aluminum pans and compacted to a depth of three-eighths to one-half inch from the top of the pan. On the top of the soil is placed a number of seeds or vegetative propagules of various plant species. The soil required to level fill the pans after seeding or adding vegetative propagules is weighed into a pan. The soil and a known amount of the active ingredient applied in a solvent or as a wettable powder suspension are thoroughly mixed, and used to cover the prepared pans. […] As an alternative procedure, the overhead irrigation may be omitted. Observations are made about 2-3 weeks after seeding and treatment.
# (§2) A further guide to the effectiveness of a chemical as a selective herbicide is the "selectivity factor" ("SF") for a herbicide in given crops and weeds. The selectivity factor is a measure of the relative degree of crop safety and weed injury and is expressed in terms of the GR15 /GR85 ratio, i.e., the GR15 rate for the crop divided by the GR85 rate for the weed, both rates in kg/ha (lb/A). In the tables below, selectivity factors are shown in parenthesis following the GR85 rate for each weed; the symbol "NS" indicates "non-selective". Marginal or undetermined selectivity is indicated by a dash (--).
# (§3) These weeds are commonly associated with such major crops as corn and soybeans. […] The test procedure was the same as described for Tables II and III but modified by the application of an initial overhead irrigation equivalent to 1/4" (0.64 cm) rainfall; subsequent watering was accomplished by subirrigation. "NS" means non-selective within the test limits.
# (§4) Unless otherwise noted; greenhouse tests in Table VI and in other tables below involved herbicide treatments by soil incorporation and an initial overhead irrigation followed by subirrigation as described above.
# [2] = test system: Yellow Nutsedge; assay: as above
# Text: as §1, §2, §3, §4
# [3] = test system: redroot pigweed; assay: as above; settings: Table XV; for selectivity factor (GR15/GR85): in rape
# Procedure, shortened: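 Pre-emergence soil-incorporation test: seeded pans were covered with topsoil mixed with active ingredient (in solvent or as wettable powder), overhead-irrigated (0.64 cm) or not, then subirrigated. Plants were scored about 2-3 weeks after treatment. GR15/GR85 rates are in kg/ha, and selectivity factor is crop GR15 divided by weed GR85.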
# [4] = test system: lima beans; assay: as above; settings: Table XVI
# Text: (§5) A good grade of top soil is placed in aluminum pans and compacted to a depth of three-eighths to one-half inch from the top of the pan. On the top of the soil is placed a number of seeds or vegetative propagules of various plant species. The soil required to level fill the pans after seeding or adding vegetative propagules is weighed into a pan. The soil and a known amount of the active ingredient applied in a solvent or as a wettable powder suspension are thoroughly mixed, and used to cover the prepared pans. After treatment, the pans are given an initial overhead irrigation of eater, equivalent to one-fourth inch (0.64 cm) rainfall, then watered by subirrigation as need to give adequate moisture for germination and growth. As an alternative procedure, the overhead irrigation may be omitted. Observations are made about 2-3 weeks after seeding and treatment.
# (§6) In the discussion and tables of data below, reference is made to herbicide application rates symbolized as "GR15 " and "GR85 "; these rates are given in kilograms per hectare (kg/ha) which are convertible into pounds per acre (lbs/A) by dividing the kg/ha rate by 1.12.
# as §2
# (§7) Additionally, pre-emergence herbicidal data from other tests have established that compounds according to this invention also selectively suppress quackgrass, yellow nutsedge and/or other weeds in one or more of the crops cotton, peanuts, bush beans and/or rape. For example, in Table VI are presented data showing the herbicidal selectivity of the compounds of Examples 1 and 2 against quackgrass in rape and snap beans. Unless otherwise noted; greenhouse tests in Table VI and in other tables below involved herbicide treatments by soil incorporation and an initial overhead irrigation followed by subirrigation as described above.
# (§8) Additional greenhouse tests were made to test certain compounds of this invention against a plurality of problem weeds in peanuts and lima beans; except for fall panicum, the test weeds are particularly resistant weeds; the test data is set forth in Table XVI.
# (§9) In Table XVI, the selectivity factors for the test compounds for each weed in lima beans is shown as the first or upper value in parenthesis and the selectivity factors for each weed in peanuts is shown as the second or lower value in parenthesis for each compound. For example, the selectivity factor for the compound of Example 3 for seedling johnsongrass in lima beans is 2.1 and in peanuts, >4.9; the selectivity factor for Texas panicum in lima beans is 1.1 and in peanuts, >2.6, etc.
# [5] = test system: peanuts; assay: as above; settings: Table XVI
# Text: as §5, §6, §2, §7, §8, §9
# [6] = test system: Barnyardgrass; assay: Resistance to leaching and resulting herbicidal efficacy; settings: for inhibition at 140 g/ha / inhibition at 560 g/ha / inhibition at 2200 g/ha: Echinochloa crus-galli, read-out: Percent Inhibition
# Procedure: Laboratory tests were conducted to determine the resistance of herbicides according to this invention to leaching into the soil and resulting herbicidal efficacy. […] The pots containing the treated soil were subjected to leaching by placing on a turntable which rotated under two nozzle tips of a water container calibrated to deliver one inch (2.5 cm) of water per hour simulating rainfall. Leaching rates were adjusted by varying the amount of time on the turntable. Water was delivered to the soil in the pots and allowed to percolate through the filter paper and drainage holes. The pots were then allowed to sit for three days at ambient room temperature. The treated soil in the pots was then removed, crumbled and placed as a surface layer on top of other pots containing the above soils seeded with barnyardgrass seeds. The pots were then placed on greenhouse benches, sub-irrigated and allowed to grow for 2-3 weeks. Visual ratings of percent growth inhibition compared to control (untreated) pots and fresh weights for barnyardgrass were recorded; the data from the control represents six replications and that for the test compounds three replications; test data are shown in Table XVIII.
# [7] = Ray silt loam, 0.14 Kg/Ha, rain 0 cm
# [8] = Ray silt loam, 0.14 Kg/Ha, rain 1.27 cm
# [9] = Ray silt loam, 0.14 Kg/Ha, rain 5.08 cm
# [10] = Ray silt loam, 0.56 Kg/Ha, rain 0 cm
# [11] = Ray silt loam, 0.56 Kg/Ha, rain 1.27 cm
# [12] = Ray silt loam, 0.56 Kg/Ha, rain 5.08 cm
# [13] = Ray silt loam, 0.56 Kg/Ha, rain 10.16 cm
# [14] = Ray silt loam, 2.2 Kg/Ha, rain 0 cm
# [15] = Ray silt loam, 2.2 Kg/Ha, rain 1.27 cm
# [16] = Ray silt loam, 2.2 Kg/Ha, rain 5.08 cm
# [17] = Ray silt loam, 2.2 Kg/Ha, rain 10.16 cm
# [18] = Ray silt loam, 0.14 Kg/Ha, rain 10.16 cm
smiles,measurement,setting,value
"CCOCN(C(=O)CCl)c1c(CC)cccc1C(F)(F)F [Example 9, N--(ethoxymethyl)-2'-trifluoromethyl-6'-ethyl-2-chloroacetanilide]",GR85,"[1]; Table IV, Replicate #2",0.20 Kg/Ha
same,GR85,[1]; Table XIII,0.36 Kg/Ha
same,selectivity against quackgrass in wheat,[1]; in wheat,non-selective
same,selectivity factor (GR15/GR85),"[1]; quackgrass in corn, Table IV, Replicate #2",11
same,selectivity factor (GR15/GR85),"[1]; quackgrass in corn, Table XIII",4.7
same,selectivity factor (GR15/GR85),"[1]; quackgrass in soybeans, Table IV, Replicate #2",10.5
same,selectivity factor (GR15/GR85),"[1]; quackgrass in soybeans, Table XIII",4.7
same,GR85,"[2]; Table IV, Replicate #2",0.17 Kg/Ha
same,GR85,[2]; Table XII,0.21 Kg/Ha
same,GR85,[2]; in cotton,0.47 kg/ha
same,S.F. (GR15/GR85),[2]; in cotton,1.5
same,selectivity with respect to yellow nutsedge in rice,[2]; in rice,non-selective
same,selectivity factor (GR15/GR85),"[2]; yellow nutsedge in corn, Table IV, Replicate #2",13
same,selectivity factor (GR15/GR85),"[2]; yellow nutsedge in corn, Table XII",12
same,selectivity factor (GR15/GR85),"[2]; yellow nutsedge in cotton, Table XII",12
same,selectivity factor (GR15/GR85),"[2]; yellow nutsedge in soybeans, Table IV, Replicate #2",12.5
same,selectivity factor (GR15/GR85),"[2]; yellow nutsedge in soybeans, Table XII",9.5
same,GR85 Rate,[3],0.70 Kg/Ha
same,selectivity factor (GR15/GR85),[3],1.4
same,GR15 Rate,[4],0.75 Kg/Ha
same,GR15 Rate,[5],0.90 Kg/Ha
"Cc1cccc(C(F)(F)F)c1N(COCC(C)C)C(=O)CCl [Example 5, N--(isobutoxymethyl)-2'-trifluoromethyl-6'-methyl-2-chloroacetanilide]",GR85 Rate,[3],0.50 Kg/Ha
same,selectivity factor (GR15/GR85),[3],> 2.2
same,GR15 Rate,[4],> 1.12 Kg/Ha
same,GR15 Rate,[5],0.56 Kg/Ha
same,inhibition at 140 g/ha,"[6]; Drummer silt clay, 0.14 Kg/Ha, rain 0 cm",12%
same,inhibition at 140 g/ha,"[6]; Drummer silt clay, 0.14 Kg/Ha, rain 1.27 cm",26%
same,inhibition at 140 g/ha,"[6]; Drummer silt clay, 0.14 Kg/Ha, rain 5.08 cm",20%
same,inhibition at 140 g/ha,"[6]; Drummer silt clay, 0.14 Kg/Ha, rain 10.16 cm",12%
same,inhibition at 560 g/ha,"[6]; Drummer silt clay, 0.56 Kg/Ha, rain 0 cm",50%
same,inhibition at 560 g/ha,"[6]; Drummer silt clay, 0.56 Kg/Ha, rain 1.27 cm",100%
same,inhibition at 560 g/ha,"[6]; Drummer silt clay, 0.56 Kg/Ha, rain 5.08 cm",93%
same,inhibition at 560 g/ha,"[6]; Drummer silt clay, 0.56 Kg/Ha, rain 10.16 cm",84%
same,inhibition at 2200 g/ha,"[6]; Drummer silt clay, 2.2 Kg/Ha, rain 0 cm",100%
same,inhibition at 2200 g/ha,"[6]; Drummer silt clay, 2.2 Kg/Ha, rain 1.27 cm",100%
same,inhibition at 2200 g/ha,"[6]; Drummer silt clay, 2.2 Kg/Ha, rain 5.08 cm",100%
same,inhibition at 2200 g/ha,"[6]; Drummer silt clay, 2.2 Kg/Ha, rain 10.16 cm",100%
same,inhibition at 140 g/ha,[6]; [7],84%
same,inhibition at 140 g/ha,[6]; [8],90%
same,inhibition at 140 g/ha,[6]; [9],58%
same,inhibition at 560 g/ha,[6]; [10],99%
same,inhibition at 560 g/ha,[6]; [11],99%
same,inhibition at 560 g/ha,[6]; [12],90%
same,inhibition at 560 g/ha,[6]; [13],72%
same,inhibition at 2200 g/ha,[6]; [14],100%
same,inhibition at 2200 g/ha,[6]; [15],100%
same,inhibition at 2200 g/ha,[6]; [16],99%
same,inhibition at 2200 g/ha,[6]; [17],84%
same,inhibition at 140 g/ha,[6]; [18],29%
same,Fresh Weight,[6]; [7],0.66 Grams
same,Fresh Weight,[6]; [8],0.43 Grams
same,Fresh Weight,[6]; [9],1.72 Grams
same,Fresh Weight,[6]; [18],2.92 Grams
same,Fresh Weight,[6]; [10],0.04 Grams
same,Fresh Weight,[6]; [11],0.02 Grams
same,Fresh Weight,[6]; [12],0.41 Grams
same,Fresh Weight,[6]; [13],1.17 Grams
same,Fresh Weight,[6]; [14],0 Grams
same,Fresh Weight,[6]; [15],0 Grams
same,Fresh Weight,[6]; [16],0.03 Grams
same,Fresh Weight,[6]; [17],0.64 Grams
